Test results reported in ChEMBL document CHEMBL5260855, “Design, synthesis and biological evaluation of simplified analogues of MraY inhibitory natural product with rigid scaffold” (Bioorg Med Chem, 2021).

Target: T1, Phospho-N-acetylmuramoyl-pentapeptide-transferase (Bacillus subtilis (strain 168), UniProt Q03521)
T1 sequence (Q03521 whole entry): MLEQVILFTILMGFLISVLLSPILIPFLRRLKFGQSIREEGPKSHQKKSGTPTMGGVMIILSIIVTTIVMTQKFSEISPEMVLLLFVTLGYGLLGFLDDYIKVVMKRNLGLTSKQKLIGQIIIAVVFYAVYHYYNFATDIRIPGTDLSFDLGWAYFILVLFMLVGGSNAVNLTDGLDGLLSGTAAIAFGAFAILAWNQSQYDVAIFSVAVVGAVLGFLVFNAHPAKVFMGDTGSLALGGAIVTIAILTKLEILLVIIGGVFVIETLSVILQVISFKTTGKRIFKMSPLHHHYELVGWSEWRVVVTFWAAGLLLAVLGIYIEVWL
Assay: Inhibition of Bacillus subtilis MraY

Row | Compound | IC50 [nM]
1 | NC[C@H]1O[C@@H](O[C@@H](c2cn(Cc3ccc(Cc4ccc(C(=O)c5ccccc5)cc4)cc3)nn2)[C@H]2O[C@@H](n3ccc(=O)[nH]c3=O)[C@H](O)[C@@H]2O)[C@H](O)[C@@H]1O | 50000

Target: T2, Phospho-N-acetylmuramoyl-pentapeptide-transferase (Staphylococcus aureus, UniProt P0C1R8)
T2 sequence (P0C1R8 whole entry): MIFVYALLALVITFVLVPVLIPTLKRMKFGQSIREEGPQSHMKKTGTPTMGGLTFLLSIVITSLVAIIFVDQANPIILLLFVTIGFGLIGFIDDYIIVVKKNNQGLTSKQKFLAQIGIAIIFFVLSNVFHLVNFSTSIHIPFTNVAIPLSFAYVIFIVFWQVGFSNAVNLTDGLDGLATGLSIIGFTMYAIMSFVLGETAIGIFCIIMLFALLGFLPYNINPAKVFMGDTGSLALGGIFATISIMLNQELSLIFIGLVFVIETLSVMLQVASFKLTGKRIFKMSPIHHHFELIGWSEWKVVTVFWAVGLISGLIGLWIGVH
Assay: Inhibition of Staphylococcus aureus MraY using UDP-MurNAc-dansylpentapeptide as substrate incubated for 3 hrs by fluorescence based microplate reader analysis

Row | Compound | IC50 [nM]
2 | NC[C@H]1O[C@@H](O[C@@H](C#Cc2ccc(NS(=O)(=O)c3ccccc3)cc2)[C@H]2O[C@@H](n3ccc(=O)[nH]c3=O)[C@H](O)[C@@H]2O)[C@H](O)[C@@H]1O | 1000
3 | NC[C@H]1O[C@@H](O[C@@H](C#Cc2ccc(NC(=O)c3ccccc3)cc2)[C@H]2O[C@@H](n3ccc(=O)[nH]c3=O)[C@H](O)[C@@H]2O)[C@H](O)[C@@H]1O | 1400
4 | NC[C@H]1O[C@@H](O[C@@H](C#Cc2ccc(C(=O)Nc3ccccc3)cc2)[C@H]2O[C@@H](n3ccc(=O)[nH]c3=O)[C@H](O)[C@@H]2O)[C@H](O)[C@@H]1O | 900
5 | NC[C@H]1O[C@@H](O[C@@H](C#Cc2ccc(-c3ccccc3)cc2)[C@H]2O[C@@H](n3ccc(=O)[nH]c3=O)[C@H](O)[C@@H]2O)[C@H](O)[C@@H]1O | 590
6 | Cc1cccc(C#C[C@H](O[C@@H]2O[C@H](CN)[C@@H](O)[C@H]2O)[C@H]2O[C@@H](n3ccc(=O)[nH]c3=O)[C@H](O)[C@@H]2O)c1 | 1400
7 | NC[C@H]1O[C@@H](O[C@@H](C#Cc2ccc(C(=O)O)cc2)[C@H]2O[C@@H](n3ccc(=O)[nH]c3=O)[C@H](O)[C@@H]2O)[C@H](O)[C@@H]1O | 4400
8 | NC[C@H]1O[C@@H](O[C@@H](CCc2ccccc2)[C@H]2O[C@@H](n3ccc(=O)[nH]c3=O)[C@H](O)[C@@H]2O)[C@H](O)[C@@H]1O | 32000
9 | NC[C@H]1O[C@@H](O[C@@H](C#Cc2cccc(C(=O)Nc3ccccc3)c2)[C@H]2O[C@@H](n3ccc(=O)[nH]c3=O)[C@H](O)[C@@H]2O)[C@H](O)[C@@H]1O | 1100
10 | NC[C@H]1O[C@@H](O[C@@H](C#Cc2ccccc2N)[C@H]2O[C@@H](n3ccc(=O)[nH]c3=O)[C@H](O)[C@@H]2O)[C@H](O)[C@@H]1O | 2100
11 | NC[C@H]1O[C@@H](O[C@@H](C#Cc2cccc(NC(=O)c3ccccc3)c2)[C@H]2O[C@@H](n3ccc(=O)[nH]c3=O)[C@H](O)[C@@H]2O)[C@H](O)[C@@H]1O | 6700
12 | C#C[C@H](O[C@@H]1O[C@H](CN)[C@@H](O)[C@H]1O)[C@H]1O[C@@H](n2ccc(=O)[nH]c2=O)[C@H](O)[C@@H]1O | 90000
13 | Cc1ccc(C#C[C@H](O[C@@H]2O[C@H](CN)[C@@H](O)[C@H]2O)[C@H]2O[C@@H](n3ccc(=O)[nH]c3=O)[C@H](O)[C@@H]2O)cc1 | 1300
14 | NC[C@H]1O[C@@H](O[C@@H](C#Cc2cccc(C(=O)O)c2)[C@H]2O[C@@H](n3ccc(=O)[nH]c3=O)[C@H](O)[C@@H]2O)[C@H](O)[C@@H]1O | 1500
15 | NC[C@H]1O[C@@H](O[C@@H](C#Cc2ccccc2C(=O)O)[C@H]2O[C@@H](n3ccc(=O)[nH]c3=O)[C@H](O)[C@@H]2O)[C@H](O)[C@@H]1O | 5700
16 | NC[C@H]1O[C@@H](O[C@@H](C#Cc2cccc(NS(=O)(=O)c3ccccc3)c2)[C@H]2O[C@@H](n3ccc(=O)[nH]c3=O)[C@H](O)[C@@H]2O)[C@H](O)[C@@H]1O | 950
17 | NC[C@H]1O[C@@H](O[C@@H](C#Cc2ccccc2)[C@H]2O[C@@H](n3ccc(=O)[nH]c3=O)[C@H](O)[C@@H]2O)[C@H](O)[C@@H]1O | 2000
18 | NC[C@H]1O[C@@H](O[C@@H](C#Cc2cccc(N)c2)[C@H]2O[C@@H](n3ccc(=O)[nH]c3=O)[C@H](O)[C@@H]2O)[C@H](O)[C@@H]1O | 1800
19 | NC[C@H]1O[C@@H](O[C@@H](C#Cc2ccc(N)cc2)[C@H]2O[C@@H](n3ccc(=O)[nH]c3=O)[C@H](O)[C@@H]2O)[C@H](O)[C@@H]1O | 300
20 | Cc1ccccc1C#C[C@H](O[C@@H]1O[C@H](CN)[C@@H](O)[C@H]1O)[C@H]1O[C@@H](n2ccc(=O)[nH]c2=O)[C@H](O)[C@@H]1O | 2000
21 | NC[C@H]1O[C@@H](O[C@@H](C#Cc2cccc(-c3ccccc3)c2)[C@H]2O[C@@H](n3ccc(=O)[nH]c3=O)[C@H](O)[C@@H]2O)[C@H](O)[C@@H]1O | 650

System: not listed separately
Assay: Inhibition of bacterial MraY
Set-up: species or system Bacteria

Row | Compound | IC50 [nM]
22 | CCCCCCCCCCCCCCCCC[C@H]1CN[C@@H]([C@H](O[C@@H]2O[C@H](CN)[C@@H](O)[C@H]2O)[C@H]2O[C@@H](n3ccc(=O)[nH]c3=O)[C@H](O)[C@@H]2O)C(=O)N(C)[C@@H]1C(=O)O | 3.8
23 | CC(C)C[C@H](NC(=O)[C@@H](NC(=O)N[C@H](C(=O)O)C(C)C)[C@@H]1CCNC(=N)N1)C(=O)NCCCN[C@H](C(=O)O)[C@H](O[C@@H]1O[C@H](CN)[C@@H](O)[C@H]1O)[C@H]1O[C@@H](n2ccc(=O)[nH]c2=O)[C@H](O)[C@@H]1O [MURAMYCIN D2] | 25
24 | CCCCCCCCCCCCCCCC[C@H](NC(C)=O)C(=O)NCCCN[C@H](C(=O)O)[C@H](O[C@@H]1O[C@H](CN)[C@@H](O)[C@H]1O)[C@H]1O[C@@H](n2ccc(=O)[nH]c2=O)[C@H](O)[C@@H]1O | 2.7
